Data from patent US7781436B2 (Hoffmann-La Roche Inc., priority 2005, dated 2010).

What follows are molecules tested against T1, human V1a receptor (Homo sapiens, UniProt P37288) (assay: human V1a receptor binding (3H-Vasopressin SPA, membranes of transfected HEK293 cells)). Details: not given.
T1 construct: expressed in transfected cells; host or cells: HEK293 cells, transiently transfected; membranes prepared
T1 sequence (P37288 whole entry): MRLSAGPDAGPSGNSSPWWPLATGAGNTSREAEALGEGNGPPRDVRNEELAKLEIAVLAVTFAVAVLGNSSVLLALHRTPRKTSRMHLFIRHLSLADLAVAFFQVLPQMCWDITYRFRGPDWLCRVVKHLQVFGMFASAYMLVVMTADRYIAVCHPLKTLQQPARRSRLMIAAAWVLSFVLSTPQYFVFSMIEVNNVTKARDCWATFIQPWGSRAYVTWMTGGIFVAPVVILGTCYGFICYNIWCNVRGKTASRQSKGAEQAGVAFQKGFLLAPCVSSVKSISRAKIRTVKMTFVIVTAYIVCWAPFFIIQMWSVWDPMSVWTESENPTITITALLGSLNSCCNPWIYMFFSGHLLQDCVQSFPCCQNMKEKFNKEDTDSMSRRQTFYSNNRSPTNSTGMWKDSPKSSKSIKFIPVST
Description: The human V1a receptor was cloned by RT-PCR from total human liver RNA. The coding sequence was subcloned in an expression vector after sequencing to confirm the identity of the amplified sequence. […] Cell membranes were prepared from HEK293 cells transiently transfected with the expression vector and grown in 20 liter fermenters with the following protocol.
50 g of cells are resuspended in 30 ml freshly prepared ice cold Lysis buffer (50 mM HEPES, 1 mM EDTA, 10 mM MgCl2 adjusted to pH=7.4+ complete cocktail of protease inhibitor (Roche Diagnostics)). Homogenized with Polytron for 1 min and sonicated on ice for 2×2 minutes at 80% intensity (Vibracell sonicator). The preparation is centrifuged 20 min at 500 g at 4° C., the pellet is discarded and the supernatant centrifuged 1 hour at 43,000 g at 4° C. (19'000 rpm). The pellet is resuspended in 12.5 ml Lysis buffer+12.5 ml Sucrose 20% and homogenized using a Polytron for 1-2 min. The protein concentration is determined by the Bradford method, and aliquots are stored at −80° C. until use. For binding studies 60 mg Yttrium silicate SPA beads (Amersham) are mixed with an aliquot of membrane in binding buffer (50 mM Tris, 120 mM NaCl, 5 mM KCl, 2 mM CaCl2, 10 mM MgCl2) for 15 minutes with mixing. 50 ul of bead/membrane mixture is then added to each well of a 96 well plate, followed by 50 ul of 4 nM 3H-Vasopressin (American Radiolabeled Chemicals). For total binding measurement 100 ul of binding buffer are added to the respective wells, for non-specific binding 100 ul of […] cold vasopressin and for compound testing 100 ul of a serial dilution of each compound in 2% DMSO. The plate is incubated 1 h at room temperature, centrifuged 1 min at 1000 g and counted on a Packard Top-Count. Non-specific binding counts are subtracted from each well, and data is normalized to the maximum specific binding set at 100%. To calculate an IC 50 the curve is fitted using a non-linear regression model (XLfit) and the Ki is calculated using the Cheng-Prussoff equation.
For `COc1ccccc1N1CCN(C(=O)c2cn(CC(=O)N3CCN(C)CC3)c3cc(Cl)ccc23)CC1` [Example 153, 2-{6-Chloro-3-[4-(2-methoxy-phenyl)-piperazine-1-carbonyl]-indol-1-yl}-1-(4-methyl-piperazin-1-yl)-ethanone], the Ki was 23 nM.
`CNC(=O)Cn1cc(C(=O)N2CCN(c3ccccc3F)CC2)c2ccc(Cl)cc21` [Example 176, 2-{6-Chloro-3-[4-(2-fluoro-phenyl)-piperazine-1-carbonyl]-indol-1-yl}-N-methyl-acetamide] was tested, and the Ki was 8 nM.
`O=C(c1cn(C[C@@H]2CCCN2)c2cc(Cl)ccc12)N1CCN(c2ccccc2F)CC1` [Example 200, (6-Chloro-1-(S)-1-pyrrolidin-2-ylmethyl-1H-indol-3-yl)-[4-(2-fluoro-phenyl)-piperazin-1-yl]-methanone] gave a Ki of 21 nM.
Molecule `CN1CCC[C@H]1Cn1cc(C(=O)N2CCN(c3ccccc3F)CC2)c2ccc(Cl)cc21` [Example 203, [6-Chloro-1-((S)-1-methyl-pyrrolidin-2-ylmethyl)-1H-indol-3-yl]-[4-(2-fluoro-phenyl)-piperazin-1-yl]-methanone] has a Ki of 2 nM.
Work on `CN(C)C(=O)Cn1cc(C(=O)N2CCN(c3ccc(F)cc3F)CC2)c2ccc(Cl)cc21` [Example 205, 2-{6-Chloro-3-[4-(2,4-difluoro-phenyl)-piperazine-1-carbonyl]-indol-1-yl}-N,N-dimethyl-acetamide] yielded a Ki of 10 nM.
`O=C(c1cn(C[C@H]2CCCN2)c2cc(Cl)ccc12)N1CCN(c2ccccc2F)CC1` [Example 214, (6-Chloro-1-(R)-1-pyrrolidin-2-ylmethyl-1H-indol-3-yl)-[4-(2-fluoro-phenyl)-piperazin-1-yl]-methanone] was tested, and the Ki was 16 nM.
With `CN1CCC[C@@H]1Cn1cc(C(=O)N2CCN(c3ccccc3F)CC2)c2ccc(Cl)cc21` [Example 215, [6-Chloro-1-((R)-1-methyl-pyrrolidin-2-ylmethyl)-1H-indol-3-yl]-[4-(2-fluoro-phenyl)-piperazin-1-yl]-methanone] the Ki was 6 nM.
With `CC(=O)NCCn1cc(C(=O)N2CCN(c3ccccc3F)CC2)c2ccc(Cl)cc21` [Example 217, N-(2-{6-Chloro-3-[4-(2-fluoro-phenyl)-piperazine-1-carbonyl]-indol-1-yl}-ethyl)-acetamide] the Ki was 21 nM.
`CC(=O)N(C)CCn1cc(C(=O)N2CCN(c3ccccc3F)CC2)c2ccc(Cl)cc21` [Example 219, N-(2-{6-Chloro-3-[4-(2-fluoro-phenyl)-piperazine-1-carbonyl]-indol-1-yl}-ethyl)-N-methyl-acetamide] was tested, and the Ki was 15 nM.
`CN(CCn1cc(C(=O)N2CCN(c3ccccc3F)CC2)c2ccc(Cl)cc21)S(C)(=O)=O` [Example 220] was tested, and the Ki was 17 nM.
`CNC(=O)Cn1cc(C(=O)N2CCN(c3nccc4sccc34)CC2)c2ccc(Cl)cc21` [Example 224, 2-[6-Chloro-3-(4-thieno[3,2-c]pyridin-4-yl-piperazine-1-carbonyl)-indol-1-yl]-N-methyl-acetamide] gave a Ki of 27 nM.

Same assay, conditions: displacement of 4 nM 3H-Vasopressin, HEK293 cell membranes, Ki by Cheng-Prussoff from IC50; read-out: Ki
`COc1ccccc1N1CCN(C(=O)c2cn(CC(=O)N(C)C)c3cc(Cl)ccc23)CC1` [Example 151, 2-{6-Chloro-3-[4-(2-methoxy-phenyl)-piperazine-1-carbonyl]-indol-1-yl}-N,N-dimethyl-acetamide] was tested, and the Ki was 14 nM.
`CCOc1ccccc1N1CCN(C(=O)c2cn(CC(=O)N(C)C)c3cc(Cl)ccc23)CC1` [Example 152, 2-{6-Chloro-3-[4-(2-ethoxy-phenyl)-piperazine-1-carbonyl]-indol-1-yl}-N,N-dimethyl-acetamide] was tested, and the Ki was 14 nM.
With `CNC(=O)Cn1cc(C(=O)N2CCN(c3ccccc3OC)CC2)c2ccc(Cl)cc21` [Example 162, 2-{6-Chloro-3-[4-(2-methoxy-phenyl)-piperazine-1-carbonyl]-indol-1-yl}-N-methyl-acetamide] the Ki was 27 nM.
Molecule `COc1ccccc1N1CCN(C(=O)c2cn(CCN(C)C)c3cc(Cl)ccc23)CC1` [Example 163, [6-Chloro-1-(2-dimethylamino-ethyl)-1H-indol-3-yl]-[4-(2-methoxy-phenyl)-piperazin-1-yl]-methanone] has a Ki of 22 nM.
Work on `CN(C)CCn1cc(C(=O)N2CCN(c3ccccc3F)CC2)c2ccc(Cl)cc21` [Example 171, [6-Chloro-1-(2-dimethylamino-ethyl)-1H-indol-3-yl]-[4-(2-fluoro-phenyl)-piperazin-1-yl]-methanone] yielded a Ki of 7 nM.
`CN1CCN(C(=O)Cn2cc(C(=O)N3CCN(c4ccccc4F)CC3)c3ccc(Cl)cc32)CC1` [Example 172, 2-{6-Chloro-3-[4-(2-fluoro-phenyl)-piperazine-1-carbonyl]-indol-1-yl}-1-(4-methyl-piperazin-1-yl)-ethanone] was tested, and the Ki was 10 nM.
`CN(C)C(=O)Cn1cc(C(=O)N2CCN(c3ccccc3F)CC2)c2ccc(Cl)cc21` [Example 174, 2-{6-Chloro-3-[4-(2-fluoro-phenyl)-piperazine-1-carbonyl]-indol-1-yl}-N,N-dimethyl-acetamide] showed a Ki of 3 nM.
In the case of `NC(=O)Cn1cc(C(=O)N2CCN(c3ccccc3F)CC2)c2ccc(Cl)cc21` [Example 175, 2-{6-Chloro-3-[4-(2-fluoro-phenyl)-piperazine-1-carbonyl]-indol-1-yl}-acetamide], the Ki is reported as 32 nM.
`O=C(Cn1cc(C(=O)N2CCN(c3ccccc3F)CC2)c2ccc(Cl)cc21)N1CCNCC1` [Example 177, 2-{6-Chloro-3-[4-(2-fluoro-phenyl)-piperazine-1-carbonyl]-indol-1-yl}-1-piperazin-1-yl-ethanone] gave a Ki of 8 nM.
`CNC(=O)Cn1cc(C(=O)N2CCN(c3ccc(F)cc3F)CC2)c2ccc(Cl)cc21` [Example 190, 2-{6-Chloro-3-[4-(2,4-difluoro-phenyl)-piperazine-1-carbonyl]-indol-1-yl}-N-methyl-acetamide] showed a Ki of 19 nM.
With `CNC(=O)Cn1cc(C(=O)N2CCN(c3ncccc3C(F)(F)F)CC2)c2ccc(Cl)cc21` [Example 196, 2-{6-Chloro-3-[4-(3-trifluoromethyl-pyridin-2-yl)-piperazine-1-carbonyl]-indol-1-yl}-N-methyl-acetamide] the Ki was 26 nM.
Molecule `C[C@H](N)Cn1cc(C(=O)N2CCN(c3ccccc3F)CC2)c2ccc(Cl)cc21` [Example 198, [1-((S)-2-Amino-propyl)-6-chloro-1H-indol-3-yl]-[4-(2-fluoro-phenyl)-piperazin-1-yl]-methanone] has a Ki of 20 nM.
`CN(C)C(=O)Cn1cc(C(=O)N2CCN(c3ncccc3C(F)(F)F)CC2)c2ccc(Cl)cc21` [Example 211, 2-{6-Chloro-3-[4-(3-trifluoromethyl-pyridin-2-yl)-piperazine-1-carbonyl]-indol-1-yl}-N,N-dimethyl-acetamide] showed a Ki of 13 nM.
`CS(=O)(=O)NCCn1cc(C(=O)N2CCN(c3ccccc3F)CC2)c2ccc(Cl)cc21` [Example 218, N-(2-{6-Chloro-3-[4-(2-fluoro-phenyl)-piperazine-1-carbonyl]-indol-1-yl}-ethyl)-methanesulfonamide] was tested, and the Ki was 16 nM.
In the case of `CNC(=O)Cn1cc(C(=O)N2CCN(c3ncccc3I)CC2)c2ccc(Cl)cc21` [Example 225, 2-{6-Chloro-3-[4-(3-iodo-pyridin-2-yl)-piperazine-1-carbonyl]-indol-1-yl}-N-methyl-acetamide], the Ki is reported as 12 nM.
